Experiments:
[1] = target: T1, rNPFF1 (Rattus norvegicus, UniProt Q9EP86); test: Binding affinity at cloned recombinant rat NPFF1 receptor
T1 construct: expressed in transfected cells

[2] = target: T2, rNPFF2 (Rattus norvegicus, UniProt Q9EQD2); test: Binding affinity at cloned recombinant rat NPFF2 receptor
T2 construct: expressed in transfected cells

[3] = target: T1, rNPFF1; test: Functional assay (agonist potency, intrinsic activity) at cloned rat NPFF1 receptor; format: cell-based; settings: for rNPFF1 IA (intrinsic activity): percent of maximum response elicited by neuropeptide FF, rat NPFF1; for EC50: recombinant rat NPFF1
Protocol: (§1) Intrinsic activity of a compound is measured as the percent of maximum response.

[4] = target: T2, rNPFF2; test: Functional assay (agonist potency, intrinsic activity) at cloned rat NPFF2 receptor; format: cell-based; settings: for rNPFF2 IA (intrinsic activity): percent of maximum response elicited by neuropeptide FF, rat NPFF2; for EC50: recombinant rat NPFF2
Protocol: as §1

T2 sequence (Q9EQD2 whole entry): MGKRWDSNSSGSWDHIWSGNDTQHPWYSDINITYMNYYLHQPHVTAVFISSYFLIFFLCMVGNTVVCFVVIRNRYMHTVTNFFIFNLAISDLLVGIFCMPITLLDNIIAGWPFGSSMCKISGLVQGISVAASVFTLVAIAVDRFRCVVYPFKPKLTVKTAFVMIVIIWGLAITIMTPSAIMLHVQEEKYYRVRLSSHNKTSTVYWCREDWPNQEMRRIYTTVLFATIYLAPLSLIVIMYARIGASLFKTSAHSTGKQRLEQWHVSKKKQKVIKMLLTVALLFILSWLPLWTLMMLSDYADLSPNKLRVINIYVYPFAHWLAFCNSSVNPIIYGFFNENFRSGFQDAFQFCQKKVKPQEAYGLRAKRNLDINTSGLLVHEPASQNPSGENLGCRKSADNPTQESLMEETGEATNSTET
T1 sequence (Q9EP86 whole entry): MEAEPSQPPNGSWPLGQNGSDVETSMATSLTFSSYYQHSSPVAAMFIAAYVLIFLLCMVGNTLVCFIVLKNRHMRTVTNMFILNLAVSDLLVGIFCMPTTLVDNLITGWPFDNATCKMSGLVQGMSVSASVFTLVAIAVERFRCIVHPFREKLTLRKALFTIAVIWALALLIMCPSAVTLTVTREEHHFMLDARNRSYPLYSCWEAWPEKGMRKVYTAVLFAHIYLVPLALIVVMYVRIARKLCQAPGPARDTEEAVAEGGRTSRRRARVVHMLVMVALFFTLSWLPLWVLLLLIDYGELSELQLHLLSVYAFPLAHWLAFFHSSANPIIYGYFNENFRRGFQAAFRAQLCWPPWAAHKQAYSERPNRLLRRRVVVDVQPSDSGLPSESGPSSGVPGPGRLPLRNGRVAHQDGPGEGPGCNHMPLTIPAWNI

Ki [1] | Ki [2] | rNPFF1 IA (intrinsic activity) [3] | EC50 [3] | rNPFF2 IA (intrinsic activity) [4] | EC50 [4] | Structure (SMILES)
0.134 µM | 3.92 µM | Inactive | > 10 µM | 24% NPFF | 5.62 µM | Cc1ccc2nc(NC(=N)N)nc(C)c2c1 [Compound 1002, N-(4,6-dimethyl-2-quinazolinyl)guanidine]
0.238 µM | 1.64 µM | Inactive | > 10 µM | 83% NPFF | 0.392 µM | CCc1ccc2nc(NC(=N)N)nc(C)c2c1 [Compound 1003, N-(6-ethyl-4-methyl-2-quinazolinyl)guanidine]
0.788 µM | 3.67 µM | 38% NPFF | 0.886 µM | 47% NPFF | 1.95 µM | CCCCCCCc1ccc2nc(NC(=N)N)nc(C)c2c1 [Compound 2006, N-(6-heptyl-4-methyl-2-quinazolinyl)guanidine]
0.057 µM | 2.87 µM | Inactive | > 10 µM | 31% NPFF | 2.54 µM | Cc1nc(NC(=N)N)nc2cc(F)c(F)cc12 [Compound 1019, N-(6,7-difluoro-4-methyl-2-quinazolinyl)guanidine]
0.077 µM | 0.461 µM | 51% NPFF | 0.25 µM | 92% NPFF | 0.423 µM | CCC(C)c1ccc2nc(NC(=N)N)nc(C)c2c1 (centres unmarked) [Compound 2002, N-(6-sec-butyl-4-methyl-2-quinazolinyl)guanidine]
0.481 µM | 5.86 µM | Inactive | > 10 µM | 51% NPFF | 3.16 µM | Cc1ccc(Oc2ccc3nc(NC(=N)N)nc(C)c3c2)cc1 [Compound 1033, N-[4-methyl-6-(4-methylphenoxy)-2-quinazolinyl]guanidine]
0.371 µM | 0.195 µM | 56% NPFF | 0.171 µM | 89% NPFF | 0.049 µM | Cc1nc(NC(=N)N)nc2ccc(Cc3ccccc3)cc12 [Compound 2003, N-(6-benzyl-4-methyl-2-quinazolinyl)guanidine]
0.201 µM | > 10 µM | Inactive | > 10 µM | Inactive | > 10 µM | COc1ccc2nc(NC(=N)N)nc(C)c2c1 [Compound 1011, N-(6-methoxy-4-methyl-2-quinazolinyl)guanidine]
0.311 µM | 3.48 µM | Inactive | > 10 µM | 22% NPFF | > 10 µM | Cc1nc(NC(=N)N)nc2ccc(-c3ccccc3)cc12 [Compound 1010, N-(4-methyl-6-phenyl-2-quinazolinyl)guanidine]
0.018 µM | 0.273 µM | Inactive | > 10 µM | 90% NPFF | 0.695 µM | CCc1ccc2c(C)nc(NC(=N)N)nc2c1 [Compound 1020, N-(7-ethyl-4-methyl-2-quinazolinyl)guanidine]
0.042 µM | 1.11 µM | Inactive | > 10 µM | 56% NPFF | 0.272 µM | Cc1cc2nc(NC(=N)N)nc(C)c2cc1C [Compound 1015, N-(4,6,7-trimethyl-2-quinazolinyl)guanidine]
0.088 µM | 0.268 µM | 56% NPFF | 0.137 µM | 81% NPFF | 0.105 µM | CCCCCCc1ccc2nc(NC(=N)N)nc(C)c2c1 [Compound 2005, N-(6-hexyl-4-methyl-2-quinazolinyl)guanidine]
0.912 µM | 1.2 µM | 28% NPFF | > 10 µM | 31% NPFF | 2.05 µM | Cc1nc(NC(=N)N)nc2ccc(C3CCCCC3)cc12 [Compound 1029, N-(6-cyclohexyl-4-methyl-2-quinazolinyl)guanidine]
0.056 µM | 0.881 µM | Inactive | > 10 µM | 76% NPFF | 0.283 µM | Cc1nc(NC(=N)N)nc2cc(C(C)C)ccc12 [Compound 1021, N-(7-isopropyl-4-methyl-2-quinazolinyl)guanidine]
0.842 µM | 1.18 µM | Inactive | > 10 µM | 52% NPFF | 3.16 µM | Cc1nc(NC(=N)N)nc2cc(C(C)O)ccc12 (centres unmarked) [Compound 1035, N-[7-(1-hydroxyethyl)-4-methyl-2-quinazolinyl]guanidine]
0.794 µM | 3.22 µM | Inactive | > 10 µM | 66% NPFF | 2.19 µM | CCCCCOc1ccc2nc(NC(=N)N)nc(C)c2c1 [Compound 1031, N-[4-methyl-6-(pentyloxy)-2-quinazolinyl]guanidine]
0.044 µM | 0.619 µM | Inactive | > 10 µM | 17% NPFF | 2.64 µM | Cc1cc(NC(=N)N)nc2cc(F)ccc12 [Compound 4007, N-(7-fluoro-4-methyl-2-quinolinyl)guanidine]
0.253 µM | 4.53 µM | Inactive | > 10 µM | 27% NPFF | 3.16 µM | Cc1nc(NC(=N)N)nc2cc(OC(C)C)ccc12 [Compound 1025, N-[4-methyl-7-(isopropoxy)-2-quinazolinyl]guanidine]
0.386 µM | 0.817 µM | Inactive | > 10 µM | 79% NPFF | 0.758 µM | Cc1nc(NC(=N)N)nc2ccc(OCc3ccccc3)cc12 [Compound 1028, N-[6-(benzyloxy)-4-methyl-2-quinazolinyl]guanidine]
0.332 µM | 2.02 µM | Inactive | > 10 µM | 52% NPFF | 0.69 µM | Cc1nc(NC(=N)N)nc2ccc(Cl)cc12 [Compound 1013, N-(6-chloro-4-methyl-2-quinazolinyl)guanidine]
0.234 µM | 5.92 µM | Inactive | > 10 µM | 23% NPFF | > 10 µM | Cc1cc2nc(NC(=N)N)nc(C)c2cc1O [Compound 1017, N-(6-hydroxy-4,7-dimethyl-2-quinazolinyl)guanidine]
0.71 µM | 1.49 µM | 36% NPFF | 1.47 µM | 90% NPFF | 0.44 µM | Cc1nc(NC(=N)N)nc2ccc(C(C)(C)C)cc12 [Compound 1004, N-(6-tert-butyl-4-methyl-2-quinazolinyl)guanidine]
0.132 µM | 2.46 µM | Inactive | > 10 µM | 78% NPFF | 0.369 µM | Cc1nc(NC(=N)N)nc2cc(OC(F)(F)F)ccc12 [Compound 1036, N-[4-methyl-7-(trifluoromethoxy)-2-quinazolinyl]guanidine]
0.802 µM | > 10 µM | Inactive | > 10 µM | 19% NPFF | > 10 µM | Cc1nc(NC(=N)N)nc2ccc(Br)cc12 [Compound 1026, N-(6-bromo-4-methyl-2-quinazolinyl)guanidine]
0.143 µM | 0.824 µM | Inactive | > 10 µM | 71% NPFF | 3.16 µM | Cc1nc(NC(=N)N)nc2cc3c(cc12)C=CCC3 [Compound 1037, N-(4-methyl-8,9-dihydrobenzo[g]quinazolin-2-yl)guanidine]
0.312 µM | 0.703 µM | Inactive |  | 22% NPFF | 5.62 µM | CCCCCCCCc1ccc2nc(NC(=N)N)nc(C)c2c1 [Compound 1009, N-(4-methyl-6-octyl-2-quinazolinyl)guanidine]
0.565 µM | 2.5 µM | Inactive | > 10 µM | 74% NPFF | 3.16 µM | COc1cc2c(C)nc(NC(=N)N)nc2cc1C [Compound 1016, N-(6-methoxy-4,7-dimethyl-2-quinazolinyl)guanidine]
0.316 µM | 2.14 µM | Inactive | > 10 µM | 21% NPFF | 3.16 µM | Cc1nc(NC(=N)N)nc2ccc(OCCCCCOc3ccccc3)cc12 [Compound 1005, N-4-methyl-6-[(5-phenoxypentyl)oxy]-2-quinazolinylguanidine]

Structure (SMILES) | Ki [1] | Ki [2] | rNPFF1 IA (intrinsic activity) [3] | EC50 [3] | rNPFF2 IA (intrinsic activity) [4] | EC50 [4]
CCCCOc1cc2nc(NC(=N)N)nc(C)c2cc1OCCCC [Compound 1018, N-(6,7-dibutoxy-4-methyl-2-quinazolinyl)guanidine] | 0.303 µM | 1.3 µM | Inactive | > 10 µM | Inactive | > 10 µM
CCCCOc1ccc2nc(NC(=N)N)nc(C)c2c1 [Compound 1012, N-(6-butoxy-4-methyl-2-quinazolinyl)guanidine] | 0.733 µM | 4.85 µM | Inactive | > 10 µM | 80% NPFF | 1.62 µM

— US20030139431A1 (priority 2001, published 2003)
